Key:
CCRF-CEM = experiment: Growth inhibition of human CCRF-CEM cells assessed as cell growth at 10 uM incubated for 48 hrs by sulforhodamine B assay relative to control; assay type: functional; conditions: read-out: Activity
K562 = experiment: Growth inhibition of human K562 cells assessed as cell growth at 10 uM incubated for 48 hrs by sulforhodamine B assay relative to control; assay type: functional; conditions: K562, 48 h, read-out: Activity
[1] = Growth inhibition of human MOLT4 cells assessed as cell growth at 10 uM incubated for 48 hrs by sulforhodamine B assay relative to control; assay type: functional; conditions: MOLT-4, 48 h, read-out: Activity
[2] = Growth inhibition of human RPMI8226 cells assessed as cell growth at 10 uM incubated for 48 hrs by sulforhodamine B assay relative to control; assay type: functional; conditions: RPMI-8226, 48 h, read-out: Activity
[3] = Growth inhibition of human HOP62 cells assessed as cell growth at 10 uM incubated for 48 hrs by sulforhodamine B assay relative to control; assay type: functional; conditions: HOP-62, 48 h, read-out: Activity
NCI-H226 = experiment: Growth inhibition of human NCI-H226 cells assessed as cell growth at 10 uM incubated for 48 hrs by sulforhodamine B assay relative to control; assay type: functional; conditions: NCI-H226, 48 h, read-out: Activity
NCI-H23 = experiment: Growth inhibition of human NCI-H23 cells assessed as cell growth at 10 uM incubated for 48 hrs by sulforhodamine B assay relative to control; assay type: functional; conditions: NCI-H23, 48 h, read-out: Activity
NCI-H322M = experiment: Growth inhibition of human NCI-H322M cells assessed as cell growth at 10 uM incubated for 48 hrs by sulforhodamine B assay relative to control; assay type: functional; conditions: read-out: Activity
NCI-H460 = experiment: Growth inhibition of human NCI-H460 cells assessed as cell growth at 10 uM incubated for 48 hrs by sulforhodamine B assay relative to control; assay type: functional; conditions: NCI-H460, 48 h, read-out: Activity
NCI-H522 = experiment: Growth inhibition of human NCI-H522 cells assessed as cell growth at 10 uM incubated for 48 hrs by sulforhodamine B assay relative to control; assay type: functional; conditions: NCI-H522, 48 h, read-out: Activity
[4] = Growth inhibition of human COLO205 cells assessed as cell growth at 10 uM incubated for 48 hrs by sulforhodamine B assay relative to control; assay type: functional; conditions: COLO 205, 48 h, read-out: Activity
[5] = Growth inhibition of human HCC2998 cells assessed as cell growth at 10 uM incubated for 48 hrs by sulforhodamine B assay relative to control; assay type: functional; conditions: HCC 2998, 48 h, read-out: Activity
[6] = Growth inhibition of human HCT15 cells assessed as cell growth at 10 uM incubated for 48 hrs by sulforhodamine B assay relative to control; assay type: functional; conditions: HCT-15, 48 h, read-out: Activity
KM12 = experiment: Growth inhibition of human KM12 cells assessed as cell growth at 10 uM incubated for 48 hrs by sulforhodamine B assay relative to control; assay type: functional; conditions: KM12, 48 h, read-out: Activity
[7] = Cytotoxicity against human GM00637 cells assessed as reduction in cell viability after 72 hrs by MTT assay; assay type: cell-based; conditions: GM00637, 72 h
MCF7 = experiment: Cytotoxicity against human MCF7 cells assessed as reduction in cell viability after 72 hrs by MTT assay; assay type: functional, cell-based; conditions: MCF7, 72 h
[8] = Quasi-reversible one electron redox potential in dichloromethane containing 0.1 M TBAP assessed as redox potential during 0/-1 redox transition at 2 mmol measured at 100 mV/s in presence of Fc/Fc by cyclic voltammetry; assay type: physicochemical
[9] = Growth inhibition of human SF295 cells assessed as cell growth at 10 uM incubated for 48 hrs by sulforhodamine B assay relative to control; assay type: functional; conditions: SF-295, 48 h, read-out: Activity
[10] = Growth inhibition of human SNB19 cells assessed as cell growth at 10 uM incubated for 48 hrs by sulforhodamine B assay relative to control; assay type: functional; conditions: SNB-19, 48 h, read-out: Activity
[11] = Growth inhibition of human SNB75 cells assessed as cell growth at 10 uM incubated for 48 hrs by sulforhodamine B assay relative to control; assay type: functional; conditions: SNB-75, 48 h, read-out: Activity
U-251 = experiment: Growth inhibition of human U251 cells assessed as cell growth at 10 uM incubated for 48 hrs by sulforhodamine B assay relative to control; assay type: functional; conditions: U-251, 48 h, read-out: Activity
SK-MEL-28 = experiment: Growth inhibition of human SK-MEL-28 cells assessed as cell growth at 10 uM incubated for 48 hrs by sulforhodamine B assay relative to control; assay type: functional; conditions: SK-MEL-28, 48 h, read-out: Activity
SK-MEL-5 = experiment: Growth inhibition of human SK-MEL-5 cells assessed as cell growth at 10 uM incubated for 48 hrs by sulforhodamine B assay relative to control; assay type: functional; conditions: SK-MEL-5, 48 h, read-out: Activity
[12] = Growth inhibition of human UACC257 cells assessed as cell growth at 10 uM incubated for 48 hrs by sulforhodamine B assay relative to control; assay type: functional; conditions: UACC-257, 48 h, read-out: Activity
[13] = Growth inhibition of human UACC62 cells assessed as cell growth at 10 uM incubated for 48 hrs by sulforhodamine B assay relative to control; assay type: functional; conditions: UACC-62, 48 h, read-out: Activity
[14] = Growth inhibition of human OVCAR3 cells assessed as cell growth at 10 uM incubated for 48 hrs by sulforhodamine B assay relative to control; assay type: functional; conditions: OVCAR-3, 48 h, read-out: Activity
NCI/ADR-RES = experiment: Growth inhibition of human NCI/ADR-RES cells assessed as cell growth at 10 uM incubated for 48 hrs by sulforhodamine B assay relative to control; assay type: functional; conditions: read-out: Activity
[15] = Growth inhibition of human SKOV3 cells assessed as cell growth at 10 uM incubated for 48 hrs by sulforhodamine B assay relative to control; assay type: functional; conditions: SK-OV-3, 48 h, read-out: Activity
[16] = Growth inhibition of human PC3 cells assessed as cell growth at 10 uM incubated for 48 hrs by sulforhodamine B assay relative to control; assay type: functional; conditions: PC-3, 48 h, read-out: Activity
MDA-MB-231 = experiment: Growth inhibition of human MDA-MB-231/ATCC cells assessed as cell growth at 10 uM incubated for 48 hrs by sulforhodamine B assay relative to control; assay type: functional; conditions: MDA-MB-231, 48 h, read-out: Activity
MDA-MB-468 = experiment: Growth inhibition of human MDA-MB-468 cells assessed as cell growth at 10 uM incubated for 48 hrs by sulforhodamine B assay relative to control; assay type: functional; conditions: MDA-MB-468, 48 h, read-out: Activity
[17] = Growth inhibition of human RXF393 cells assessed as cell growth at 10 uM incubated for 48 hrs by sulforhodamine B assay relative to control; assay type: functional; conditions: RXF 393, 48 h, read-out: Activity
SN12C = experiment: Growth inhibition of human SN12C cells assessed as cell growth at 10 uM incubated for 48 hrs by sulforhodamine B assay relative to control; assay type: functional; conditions: read-out: Activity
[18] = Growth inhibition of human TK10 cells assessed as cell growth at 10 uM incubated for 48 hrs by sulforhodamine B assay relative to control; assay type: functional; conditions: TK-10, 48 h, read-out: Activity

Compound	growth at 10 µM (CCRF-CEM) [%]	growth at 10 µM (K562) [%]	growth at 10 µM [1] [%]	growth at 10 µM [2] [%]	growth at 10 µM [3] [%]	growth at 10 µM (NCI-H226) [%]	growth at 10 µM (NCI-H23) [%]	growth at 10 µM (NCI-H322M) [%]	growth at 10 µM (NCI-H460) [%]	growth at 10 µM (NCI-H522) [%]	growth at 10 µM [4] [%]	growth at 10 µM [5] [%]	growth at 10 µM [6] [%]	growth at 10 µM (KM12) [%]	IC50 [7] [nM]	IC50 (MCF7) [nM]	Activity [8] [V]	growth at 10 µM [9] [%]	growth at 10 µM [10] [%]	growth at 10 µM [11] [%]	also measured
O=c1ccc2nc(-c3ccccc3)nn(-c3ccccc3)c-2c1	-16.4	-39	-37.6	-6.53	69.5	66.1	54.4	66.2	61.5	-90.5	-76.8	100	-75.9	63.1	230	810	-1.12	23.9	76	93.2	growth at 10 µM (U-251): 66.2%; growth at 10 µM (SK-MEL-28): 26.4%; growth at 10 µM (SK-MEL-5): 19.5%; growth at 10 µM [12]: -97.3%; growth at 10 µM [13]: 30.1%; growth at 10 µM [14]: -96.2%; growth at 10 µM (NCI/ADR-RES): 96.2%; growth at 10 µM [15]: 59.1%; growth at 10 µM [16]: 43.5%; growth at 10 µM (MDA-MB-231): 76.3%; growth at 10 µM (MDA-MB-468): -61.6%; growth at 10 µM [17]: -92.8%; growth at 10 µM (SN12C): 40.2%; growth at 10 µM [18]: -95.9%
O=c1ccc2nc(C(F)(F)F)nn(-c3ccccc3)c-2c1	-0.27	-35.1	-20.5	45.6	66	77.7	67.7	99.8	97.3	-56	-70.7	102	-79.7	96.8	1610	600	-0.86	91.9	93.5	86.5	growth at 10 µM (U-251): 69.7%; growth at 10 µM (SK-MEL-28): 35.7%; growth at 10 µM (SK-MEL-5): 32.7%; growth at 10 µM [12]: 35.6%; growth at 10 µM [13]: 66.4%; growth at 10 µM [14]: -26.1%; growth at 10 µM (NCI/ADR-RES): 84%; growth at 10 µM [15]: 79.3%; growth at 10 µM [16]: 84.5%; growth at 10 µM (MDA-MB-231): 61%; growth at 10 µM (MDA-MB-468): -73.5%; growth at 10 µM [17]: -20.4%; growth at 10 µM (SN12C): 67.9%; growth at 10 µM [18]: -95%
